Read-outs that look alike come from different tables or passages of the source.
Tests used:
Puccinia triticina = experiment: Wheat Brown Rust fungicidal activity (PUCCRT); assay type: in vivo; conditions: Low Volume Cereal Activity at 121.5 g/Ha
Zymoseptoria tritici = experiment: Leaf Blotch of Wheat fungicidal activity (SEPTTR); assay type: in vivo; conditions: Low Volume Cereal Activity at 121.5 g/Ha
Phakopsora pachyrhizi = experiment: Asian Soybean Rust fungicidal activity (PHAKPA); conditions: for pest or weed control at 25 ppm: Phakopsora pachyrhizi, in Glycine max
[1] = 24 h, 1 Day Protectant, read-out: PUCCRT 1DP (Wheat Brown Rust, 1 Day Protectant)
[2] = 72 h, 3 Day Curative, read-out: PUCCRT 3DC (Wheat Brown Rust, 3 Day Curative)
[3] = 24 h, 1 Day Protectant, read-out: SEPTTR 1DP (Wheat Leaf Blotch, 1 Day Protectant)
[4] = 72 h, 3 Day Curative, read-out: SEPTTR 3DC (Wheat Leaf Blotch, 3 Day Curative)
[5] = 24 h, read-out: PHAKPA 1DP % Control rating, soybean, high volume, 25 ppm, 1 Day Protectant
[6] = 72 h, read-out: PHAKPA 3DC % Control rating, soybean, high volume, 25 ppm, 3 Day Curative

Row | Structure (SMILES) | pest or weed control at 121.5 g/ha (Puccinia triticina; [1]) [%] | pest or weed control at 121.5 g/ha (Puccinia triticina; [2]) [%] | pest or weed control at 121.5 g/ha (Zymoseptoria tritici; [3]) [%] | pest or weed control at 121.5 g/ha (Zymoseptoria tritici; [4]) [%] | pest or weed control at 25 ppm (Phakopsora pachyrhizi; [5]) [%] | pest or weed control at 25 ppm (Phakopsora pachyrhizi; [6]) [%] | PHAKPA 3DC % Control rating (Phakopsora pachyrhizi; soybean, high volume, 25 ppm, 3 Day Curative)
1 | COc1ccnc(C(=O)N[C@@H](C)C(=O)O[C@@H](C)[C@H](Oc2ccccc2)c2ccc(F)cc2)c1OCOC(C)=O [Example 241] | > 80 | > 80 | > 80 | > 80 | > 80 | < 0 | 
2 | COc1ccnc(C(=O)N[C@@H](C)C(=O)O[C@@H](C)[C@H](Oc2ccccc2)c2ccc(F)cc2)c1OC(C)=O [Example 242] | > 80 | > 80 | > 80 | > 80 | > 80 | < 80 | 
3 | COc1ccnc(C(=O)N[C@@H](C)C(=O)O[C@@H](C)[C@H](Oc2ccccc2)c2ccc(C)cc2F)c1OCOC(C)=O [Example 261] | > 80 | > 80 | > 80 | > 80 | > 80 | < 0 | 
4 | COc1ccnc(C(=O)N[C@@H](C)C(=O)O[C@@H](C)[C@H](Oc2ccccc2)c2cccc3ccccc23)c1OCOC(C)=O [Example 262] | > 80 | > 80 | > 80 | > 80 | > 80 | < 0 | 
5 | C=CCOc1cc(F)ccc1[C@@H](Oc1ccccc1)[C@H](C)OC(=O)[C@H](C)NC(=O)c1nccc(OC)c1OC(C)=O [Example 264] | > 80 | < 0 | > 80 | > 80 | < 80 | < 80 | 
6 | CCOc1cc(F)ccc1[C@@H](Oc1ccccc1)[C@H](C)OC(=O)[C@H](C)NC(=O)c1nccc(OC)c1OC(C)=O [Example 265] | > 80 | > 80 | > 80 | > 80 | < 80 | < 0 | 
7 | COc1cc(F)ccc1[C@@H](Oc1ccc(C)cc1Cl)[C@H](C)OC(=O)[C@H](C)NC(=O)c1nccc(OC)c1OC(C)=O [Example 266] | > 80 | < 80 | > 80 | > 80 | < 80 | < 0 | 
8 | COc1ccnc(C(=O)N[C@@H](C)C(=O)O[C@@H](C)[C@H](Oc2ccccc2)c2ccc(F)cc2OC(C)=O)c1OC(C)=O [Example 267] | < 80 | < 0 | > 80 | < 80 | < 80 | < 80 | 
9 | CCCOc1cc(F)ccc1[C@@H](Oc1ccccc1)[C@H](C)OC(=O)[C@H](C)NC(=O)c1nccc(OC)c1OC(C)=O [Example 268] | > 80 | > 80 | > 80 | > 80 | < 80 | < 80 | 
10 | COc1cc(F)ccc1[C@@H](Oc1ccccc1)[C@H](C)OC(=O)[C@H](C)NC(=O)c1nccc(OC)c1OC(C)=O [Example 269] | > 80 | > 80 | > 80 | > 80 | > 80 |  | B (≦80)
11 | COc1cc(F)ccc1[C@@H](Oc1ccc(C)cc1)[C@H](C)OC(=O)[C@H](C)NC(=O)c1nccc(OC)c1OC(C)=O [Example 271] | > 80 | < 0 | > 80 | > 80 | < 80 | < 80 | 
12 | COc1ccnc(C(=O)N[C@@H](C)C(=O)O[C@@H](C)[C@H](Oc2ccccc2)c2ccc(F)cc2OCC2CC2)c1OC(C)=O [Example 272] | > 80 | > 80 | > 80 | > 80 | < 80 | < 0 | 
13 | COc1ccnc(C(=O)N[C@@H](C)C(=O)O[C@@H](C)[C@H](Oc2ccccc2)c2ccc(F)cc2OCC(F)F)c1OC(C)=O [Example 273] | > 80 | > 80 | > 80 | > 80 | < 80 | < 0 | 
14 | COc1cc(C)ccc1[C@@H](Oc1ccc(C)cc1)[C@H](C)OC(=O)[C@H](C)NC(=O)c1nccc(OC)c1OC(C)=O [Example 274] | > 80 | < 80 | > 80 | > 80 | < 80 | < 0 | 
15 | COc1ccnc(C(=O)N[C@@H](C)C(=O)O[C@@H](C)[C@H](Oc2ccccc2)c2ccc(F)cc2Oc2ccccc2)c1OC(C)=O [Example 275] | > 80 | > 80 | > 80 | < 80 | < 80 | < 0 | 
16 | COc1cc(F)ccc1[C@@H](OCC(F)F)[C@H](C)OC(=O)[C@H](C)NC(=O)c1nccc(OC)c1OC(C)=O [Example 294] | < 80 | < 80 | > 80 | > 80 | < 80 | < 80 | 
17 | COc1cc(F)ccc1[C@@H](OCC1CC1)[C@H](C)OC(=O)[C@H](C)NC(=O)c1nccc(OC)c1OC(C)=O [Example 295] | > 80 | < 80 | > 80 | > 80 | > 80 | < 80 | 
18 | COc1cc(F)ccc1[C@@H](OC(=O)C(C)(C)C)[C@H](C)OC(=O)[C@H](C)NC(=O)c1nccc(OC)c1OC(C)=O [Example 296] | > 80 | < 0 | > 80 | > 80 | < 80 | < 80 | 
19 | COc1cc(F)ccc1[C@@H](OC(=O)C1CC1)[C@H](C)OC(=O)[C@H](C)NC(=O)c1nccc(OC)c1OC(C)=O [Example 297] | < 0 | < 0 | < 0 | < 80 | < 80 | < 80 | 
20 | COc1cc(F)ccc1[C@H](OC1CC1)[C@H](C)OC(=O)[C@H](C)NC(=O)c1nccc(OC)c1OC(C)=O [Example 298] | < 80 | > 80 | < 80 | < 0 | > 80 | < 80 | 
21 | COc1cc(F)ccc1[C@@H](OC1CC1)[C@H](C)OC(=O)[C@H](C)NC(=O)c1nccc(OC)c1OC(C)=O [Example 299] | > 80 | < 80 | > 80 | > 80 | > 80 | < 80 | 
